Data as given in US4396598A, “Triiodoisophthalamide X-ray contrast agent” (Mallinckrodt, Inc., priority 1982, dated 1983).

Assays:
[1] = test system: Swiss mice; assay: Acute Intravenous Toxicity in Mice; format: in vivo; settings: i.v., 40% I, seven day observation
Description: (§1) The following pharmacological studies were conducted on N,N'-bis(2,3-dihydroxypropyl)-5-N-(2-hydroxyethyl)glycolamido-2,4,6-triiodoisophthalamide (PRODUCT), prepared by the method of Example 1.
A solution of the PRODUCT (40% I) was injected into the lateral tail vein of young adult male and female Swiss mice at a rate of 1 ml/min. […]

[2] = Radiographic observations, lateral radiograph of head and thorax in rat after intracisternal injection; format: in vivo; settings: male rat, 137 mg I/kg (40% I solution), immediately after administration
[3] = Acute Intracisternal Toxicity in Rats; format: in vivo, Sprague Dawley rats; settings: rat, in vivo, concentration 450, two day observation, 95% confidence limits 1,853-2,936
Description: as §1
(§2) The technique described by Melartin, et al. (Invest. Radiol. 5: 13-21, 1970) was utilized to evaluate lethal effects of a solution of the PRODUCT after injection into cerebrospinal fluid at the cisterna magna. Young adult male Sprague Dawley rats were used. After dosing, the animals were housed individually and observed for immediate reactions and periodically for a two day observation period. The LD50 value was calculated by the method of Litchfield and Wilcoxin (J. Pharmacol. Exp. Therap. 96: 99-113, 1949) with the following results: […]

[4] = test system: Sprague Dawley rats; assay: Acute Intracisternal Toxicity in Rats; format: in vivo; settings: concentration 450, two day observation, 95% confidence limits 874-1,385
Description: as §1, §2

[5] = Radiographic observations, whole body radiographs in mouse after intravenous administration; format: in vivo; settings: male mouse, i.v. (lateral tail vein), 10,000 mg I/kg (40% I solution), immediately and 5 minutes after administration
Description: A male mouse (23 g) was anesthetized with sodium pentobarbital (40 mg/kg, i.p.; Nembutal®, Abbott Laboratories). The N,N'-bis(2,3-dihydroxypropyl)-5-N-(2-hydroxyethyl)glycolamido-2,4,6-triiodoisophthalamide prepared by method of Example 1, was administered at a dose of 10,000 mg I/kg (40% I solution) via a lateral tail vein of the mouse at a rate of 1 ml/minute.

O=C(NCC(O)CO)c1c(I)c(C(=O)NCC(O)CO)c(I)c(N(CCO)C(=O)CO)c1I (centres unmarked) [PRODUCT, N,N'-Bis(2,3-dihydroxypropyl)-5-N-(2-hydroxyethyl)glycolamido-2,4,6-triiodoisophthalamide]
NUMBER OF MORTALITIES/NUMBER DOSED ([1]; 18,500 mg I/kg (39,220 mg/kg)): 0/8
NUMBER OF MORTALITIES/NUMBER DOSED ([1]; 20,000 mg I/kg (42,400 mg/kg)): 5/8
NUMBER OF MORTALITIES/NUMBER DOSED ([1]; 21,500 mg I/kg (45,580 mg/kg)): 10/10
LD50 ([1]; mice): about 20,000 mg I/kg
visualization on lateral radiograph of the head and thorax [2]: good visualization of the cisterna magna, basal cisterns, and cervical subarachnoid space
LD50 at 48 h [3]: 2330 mg/kg
LD50 (95% Confidence Limits) [4]: 1,100 mg I/kg
opacification on whole body radiographs [5]: opacification of the liver and cardiovascular and renal excretory systems
